# Measured values as given in the NIST ThermoML archive (doi:10.1021/je500380x).
# ± gives the expanded uncertainty stated by the source.
# Assay: mn = molality of the nth substance listed, in mol/kg
# Conditions: 100 kPa, Liquid; for electrical conductivity: Alternating current cell with electrodes; for viscosity: Falling or rolling sphere viscometry; for mass density: Vibrating tube method
compound,measurement,setting,value
CCC(=O)OCCN1CCNCC1 [2-(piperazin-1-yl)ethyl propionate] + CO,electrical conductivity,"293.15 K, m1 = 0.05",0.128 ± 0.0013 S/m
same,electrical conductivity,"293.15 K, m1 = 0.1001",0.211 ± 0.002 S/m
same,electrical conductivity,"293.15 K, m1 = 0.2006",0.339 ± 0.003 S/m
same,electrical conductivity,"293.15 K, m1 = 0.3003",0.432 ± 0.004 S/m
same,electrical conductivity,"293.15 K, m1 = 0.3995",0.506 ± 0.005 S/m
same,electrical conductivity,"293.15 K, m1 = 0.5005",0.566 ± 0.006 S/m
same,electrical conductivity,"293.15 K, m1 = 0.6006",0.617 ± 0.006 S/m
same,electrical conductivity,"293.15 K, m1 = 0.7007",0.657 ± 0.007 S/m
same,electrical conductivity,"293.15 K, m1 = 0.8007",0.688 ± 0.007 S/m
same,electrical conductivity,"293.15 K, m1 = 0.9008",0.712 ± 0.007 S/m
same,electrical conductivity,"293.15 K, m1 = 1.001",0.732 ± 0.007 S/m
same,electrical conductivity,"293.15 K, m1 = 1.2",0.757 ± 0.008 S/m
same,electrical conductivity,"293.15 K, m1 = 1.401",0.752 ± 0.008 S/m
same,electrical conductivity,"293.15 K, m1 = 1.6",0.737 ± 0.007 S/m
same,electrical conductivity,"293.15 K, m1 = 1.801",0.706 ± 0.007 S/m
same,electrical conductivity,"293.15 K, m1 = 2",0.656 ± 0.007 S/m
same,electrical conductivity,"293.15 K, m1 = 2.203",0.605 ± 0.006 S/m
same,electrical conductivity,"293.15 K, m1 = 2.403",0.542 ± 0.005 S/m
same,electrical conductivity,"293.15 K, m1 = 2.603",0.479 ± 0.005 S/m
same,electrical conductivity,"293.15 K, m1 = 2.803",0.409 ± 0.004 S/m
same,electrical conductivity,"293.15 K, m1 = 3.006",0.342 ± 0.003 S/m
same,viscosity,"293.15 K, m1 = 0.05",0.613 ± 0.008 mPa·s
same,viscosity,"293.15 K, m1 = 0.1001",0.632 ± 0.008 mPa·s
same,viscosity,"293.15 K, m1 = 0.2006",0.675 ± 0.008 mPa·s
same,viscosity,"293.15 K, m1 = 0.3003",0.72 ± 0.009 mPa·s
same,viscosity,"293.15 K, m1 = 0.3995",0.771 ± 0.01 mPa·s
same,viscosity,"293.15 K, m1 = 0.5005",0.828 ± 0.01 mPa·s
same,viscosity,"293.15 K, m1 = 0.6006",0.89 ± 0.011 mPa·s
same,viscosity,"293.15 K, m1 = 0.7007",0.954 ± 0.012 mPa·s
same,viscosity,"293.15 K, m1 = 0.8007",1.033 ± 0.013 mPa·s
same,viscosity,"293.15 K, m1 = 0.9008",1.118 ± 0.014 mPa·s
same,viscosity,"293.15 K, m1 = 1.001",1.219 ± 0.015 mPa·s
same,viscosity,"293.15 K, m1 = 1.2",1.426 ± 0.018 mPa·s
same,viscosity,"293.15 K, m1 = 1.401",1.719 ± 0.021 mPa·s
same,viscosity,"293.15 K, m1 = 1.6",2.09 ± 0.026 mPa·s
same,viscosity,"293.15 K, m1 = 1.801",2.581 ± 0.032 mPa·s
same,viscosity,"293.15 K, m1 = 2",3.261 ± 0.04 mPa·s
same,viscosity,"293.15 K, m1 = 2.203",4.138 ± 0.051 mPa·s
same,viscosity,"293.15 K, m1 = 2.403",5.479 ± 0.068 mPa·s
same,viscosity,"293.15 K, m1 = 2.603",7.28 ± 0.09 mPa·s
same,viscosity,"293.15 K, m1 = 2.803",9.916 ± 0.12 mPa·s
same,viscosity,"293.15 K, m1 = 3.001",14.36 ± 0.18 mPa·s
same,mass density,"293.15 K, m1 = 0.05",794.44 ± 0.15 kg/m3
same,mass density,"293.15 K, m1 = 0.1001",797.52 ± 0.15 kg/m3
same,mass density,"293.15 K, m1 = 0.2006",803.64 ± 0.15 kg/m3
same,mass density,"293.15 K, m1 = 0.3003",809.65 ± 0.15 kg/m3
same,mass density,"293.15 K, m1 = 0.3995",815.7 ± 0.15 kg/m3
same,mass density,"293.15 K, m1 = 0.5005",821.73 ± 0.15 kg/m3
same,mass density,"293.15 K, m1 = 0.6006",827.94 ± 0.14 kg/m3
same,mass density,"293.15 K, m1 = 0.7007",834.12 ± 0.14 kg/m3
same,mass density,"293.15 K, m1 = 0.8007",840.22 ± 0.14 kg/m3
same,mass density,"293.15 K, m1 = 0.9008",846.35 ± 0.14 kg/m3
same,mass density,"293.15 K, m1 = 1.001",852.36 ± 0.14 kg/m3
same,mass density,"293.15 K, m1 = 1.2",864.62 ± 0.14 kg/m3
same,mass density,"293.15 K, m1 = 1.401",877.59 ± 0.13 kg/m3
same,mass density,"293.15 K, m1 = 1.6",890.02 ± 0.13 kg/m3
same,mass density,"293.15 K, m1 = 1.801",903.1 ± 0.13 kg/m3
same,mass density,"293.15 K, m1 = 2",916.07 ± 0.13 kg/m3
same,mass density,"293.15 K, m1 = 2.203",929.95 ± 0.12 kg/m3
same,mass density,"293.15 K, m1 = 2.403",942.83 ± 0.12 kg/m3
same,mass density,"293.15 K, m1 = 2.603",955.65 ± 0.12 kg/m3
same,mass density,"293.15 K, m1 = 2.803",969.71 ± 0.12 kg/m3
same,mass density,"293.15 K, m1 = 3.001",982.22 ± 0.11 kg/m3
same,electrical conductivity,"298.15 K, m1 = 0.05",0.132 ± 0.0014 S/m
same,electrical conductivity,"298.15 K, m1 = 0.1001",0.218 ± 0.002 S/m
same,electrical conductivity,"298.15 K, m1 = 0.2006",0.351 ± 0.004 S/m
same,electrical conductivity,"298.15 K, m1 = 0.3003",0.448 ± 0.005 S/m
same,electrical conductivity,"298.15 K, m1 = 0.3995",0.525 ± 0.005 S/m
same,electrical conductivity,"298.15 K, m1 = 0.5005",0.59 ± 0.006 S/m
same,electrical conductivity,"298.15 K, m1 = 0.6006",0.644 ± 0.006 S/m
same,electrical conductivity,"298.15 K, m1 = 0.7007",0.686 ± 0.007 S/m
same,electrical conductivity,"298.15 K, m1 = 0.8007",0.72 ± 0.007 S/m
same,electrical conductivity,"298.15 K, m1 = 0.9008",0.748 ± 0.008 S/m
same,electrical conductivity,"298.15 K, m1 = 1.001",0.77 ± 0.008 S/m
same,electrical conductivity,"298.15 K, m1 = 1.2",0.794 ± 0.008 S/m
same,electrical conductivity,"298.15 K, m1 = 1.401",0.797 ± 0.008 S/m
same,electrical conductivity,"298.15 K, m1 = 1.6",0.784 ± 0.008 S/m
same,electrical conductivity,"298.15 K, m1 = 1.801",0.755 ± 0.008 S/m
same,electrical conductivity,"298.15 K, m1 = 2",0.708 ± 0.007 S/m
same,electrical conductivity,"298.15 K, m1 = 2.203",0.653 ± 0.007 S/m
same,electrical conductivity,"298.15 K, m1 = 2.403",0.587 ± 0.006 S/m
same,electrical conductivity,"298.15 K, m1 = 2.603",0.518 ± 0.005 S/m
same,electrical conductivity,"298.15 K, m1 = 2.803",0.457 ± 0.005 S/m
same,electrical conductivity,"298.15 K, m1 = 3.006",0.392 ± 0.004 S/m
same,viscosity,"298.15 K, m1 = 0.05",0.576 ± 0.007 mPa·s
same,viscosity,"298.15 K, m1 = 0.1001",0.592 ± 0.007 mPa·s
same,viscosity,"298.15 K, m1 = 0.2006",0.629 ± 0.008 mPa·s
same,viscosity,"298.15 K, m1 = 0.3003",0.671 ± 0.008 mPa·s
same,viscosity,"298.15 K, m1 = 0.3995",0.716 ± 0.009 mPa·s
same,viscosity,"298.15 K, m1 = 0.5005",0.767 ± 0.01 mPa·s
same,viscosity,"298.15 K, m1 = 0.6006",0.823 ± 0.01 mPa·s
same,viscosity,"298.15 K, m1 = 0.7007",0.881 ± 0.011 mPa·s
same,viscosity,"298.15 K, m1 = 0.8007",0.952 ± 0.012 mPa·s
same,viscosity,"298.15 K, m1 = 0.9008",1.029 ± 0.013 mPa·s
same,viscosity,"298.15 K, m1 = 1.001",1.117 ± 0.014 mPa·s
same,viscosity,"298.15 K, m1 = 1.2",1.303 ± 0.016 mPa·s
same,viscosity,"298.15 K, m1 = 1.401",1.562 ± 0.019 mPa·s
same,viscosity,"298.15 K, m1 = 1.6",1.888 ± 0.023 mPa·s
same,viscosity,"298.15 K, m1 = 1.801",2.319 ± 0.029 mPa·s
same,viscosity,"298.15 K, m1 = 2",2.909 ± 0.036 mPa·s
same,viscosity,"298.15 K, m1 = 2.203",3.661 ± 0.045 mPa·s
same,viscosity,"298.15 K, m1 = 2.403",4.801 ± 0.059 mPa·s
same,viscosity,"298.15 K, m1 = 2.603",6.312 ± 0.078 mPa·s
same,viscosity,"298.15 K, m1 = 2.803",8.495 ± 0.11 mPa·s
same,viscosity,"298.15 K, m1 = 3.001",12.13 ± 0.15 mPa·s
same,mass density,"298.15 K, m1 = 0.05",789.75 ± 0.15 kg/m3
same,mass density,"298.15 K, m1 = 0.1001",792.84 ± 0.15 kg/m3
same,mass density,"298.15 K, m1 = 0.2006",798.96 ± 0.15 kg/m3
same,mass density,"298.15 K, m1 = 0.3003",805.01 ± 0.15 kg/m3
same,mass density,"298.15 K, m1 = 0.3995",811.06 ± 0.15 kg/m3
